In publication PMC8632988, “Inhibition of SYK and cSrc kinases can protect bone and cartilage in preclinical models of osteoarthritis and rheumatoid arthritis” (Scientific Reports, 2021):

Legend:
Experiment in all cases: Kinase selectivity profile assay
Format in all cases: biochemical
CDC7/DBF4 = target: T1, CDC7/DBF4 (Homo sapiens, UniProt O00311); conditions: 500 nM; relative to DMSO; read-out: Residual enzymatic activity
T1 construct: purchased Reaction Biology Corporation
Procedure: (§1) The activity of MT-SYK-03 against cSrc kinase and selectivity profile towards other 341 kinases was determined at Reaction Biology Corporation (Malvern, PA, USA) using the standard kinase assay protocol. […]; unbound phosphate was removed by extensive washing of filters in phosphoric acid. Kinase activity data was expressed as the percent remaining kinase activity in test samples compared to vehicle (dimethyl sulfoxide) reactions based on the radioactivity of reaction products (see Table S2). Experiment was replicated twice.

ERBB2/HER2 = target: T2, ERBB2/HER2 (Homo sapiens, UniProt P04626); conditions: 500 nM; relative to DMSO; read-out: Residual enzymatic activity
T2 construct: purchased Reaction Biology Corporation
Procedure: as §1

HGK/MAP4K4 = target: T3, HGK/MAP4K4 (Homo sapiens, UniProt O95819); conditions: 500 nM; relative to DMSO; read-out: Residual enzymatic activity
T3 construct: purchased Reaction Biology Corporation
Procedure: as §1

HPK1/MAP4K1 = target: T4, HPK1/MAP4K1 (Homo sapiens, UniProt Q92918); conditions: 500 nM; relative to DMSO; read-out: Residual enzymatic activity
T4 construct: purchased Reaction Biology Corporation
Procedure: as §1

IRAK4 = target: T5, IRAK4 (Homo sapiens, UniProt Q9NWZ3); conditions: 500 nM; relative to DMSO; read-out: Residual enzymatic activity
T5 construct: purchased Reaction Biology Corporation
Procedure: as §1

LYN B = target: T6, LYN B (Homo sapiens, UniProt P07948); conditions: for remaining activity at 0.5 µM: 500 nM, relative to DMSO, read-out: Residual enzymatic activity
T6 construct: purchased Reaction Biology Corporation (assay service)
Procedure: as §1

MEK2 = target: T7, MEK2 (Homo sapiens, UniProt P36507); conditions: 500 nM; relative to DMSO; read-out: Residual enzymatic activity
T7 construct: purchased Reaction Biology Corporation
Procedure: as §1

MST4 = target: T8, MST4 (Homo sapiens, UniProt Q9P289); conditions: 500 nM; relative to DMSO; read-out: Residual enzymatic activity
T8 construct: purchased Reaction Biology Corporation
Procedure: as §1

NLK = target: T9, NLK (Homo sapiens, UniProt Q9UBE8); conditions: 500 nM; relative to DMSO; read-out: Residual enzymatic activity
T9 construct: purchased Reaction Biology Corporation
Procedure: as §1

PKCa = target: T10, PKCa (Homo sapiens, UniProt P17252); conditions: 500 nM; relative to DMSO; read-out: Residual enzymatic activity
T10 construct: purchased Reaction Biology Corporation
Procedure: as §1

PKCb1 = target: T11, PKCb1 (Homo sapiens, UniProt P05771); conditions: 500 nM; relative to DMSO; read-out: Residual enzymatic activity
T11 construct: purchased Reaction Biology Corporation
Procedure: as §1

PKCepsilon = target: T12, PKCepsilon (Homo sapiens, UniProt Q02156); conditions: 500 nM; relative to DMSO; read-out: Residual enzymatic activity
T12 construct: purchased Reaction Biology Corporation
Procedure: as §1

PKCeta = target: T13, PKCeta (Homo sapiens, UniProt P24723); conditions: 500 nM; relative to DMSO; read-out: Residual enzymatic activity
T13 construct: purchased Reaction Biology Corporation
Procedure: as §1

RIPK2 = target: T14, RIPK2 (Homo sapiens, UniProt O43353); conditions: 500 nM; relative to DMSO; read-out: Residual enzymatic activity
T14 construct: purchased Reaction Biology Corporation
Procedure: as §1

STK32B/YANK2 = target: T15, STK32B/YANK2 (Homo sapiens, UniProt Q9NY57); conditions: 500 nM; relative to DMSO; read-out: Residual enzymatic activity
T15 construct: purchased Reaction Biology Corporation
Procedure: as §1

TAOK3/JIK = target: T16, TAOK3/JIK (Homo sapiens, UniProt Q9H2K8); conditions: 500 nM; relative to DMSO; read-out: Residual enzymatic activity
T16 construct: purchased Reaction Biology Corporation
Procedure: as §1

TBK1 = target: T17, TBK1 (Homo sapiens, UniProt Q9UHD2); conditions: 500 nM; relative to DMSO; read-out: Residual enzymatic activity
T17 construct: purchased Reaction Biology Corporation
Procedure: as §1

TXK = target: T18, TXK (Homo sapiens, UniProt P42681); conditions: for remaining activity at 0.5 µM: 500 nM, relative to DMSO, read-out: Residual enzymatic activity
T18 construct: purchased Reaction Biology Corporation (Malvern, PA, USA)
T18 sequence (P42681 1-527): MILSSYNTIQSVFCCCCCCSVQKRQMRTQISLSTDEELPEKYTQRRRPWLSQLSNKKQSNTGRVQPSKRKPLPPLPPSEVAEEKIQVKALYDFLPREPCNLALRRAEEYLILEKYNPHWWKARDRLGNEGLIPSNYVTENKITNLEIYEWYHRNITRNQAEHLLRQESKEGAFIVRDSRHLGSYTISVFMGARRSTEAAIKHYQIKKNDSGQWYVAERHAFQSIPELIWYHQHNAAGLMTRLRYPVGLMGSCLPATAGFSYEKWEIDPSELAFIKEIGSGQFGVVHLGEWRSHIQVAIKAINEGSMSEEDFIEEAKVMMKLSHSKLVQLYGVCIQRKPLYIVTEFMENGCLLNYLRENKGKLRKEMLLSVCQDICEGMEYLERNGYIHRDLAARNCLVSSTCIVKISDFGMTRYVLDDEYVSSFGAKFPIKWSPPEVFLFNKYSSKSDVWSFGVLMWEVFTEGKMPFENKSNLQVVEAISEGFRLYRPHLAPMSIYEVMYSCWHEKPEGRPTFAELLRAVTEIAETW
Procedure: as §1

WEE1 = target: T19, WEE1 (Homo sapiens, UniProt P30291); conditions: 500 nM; relative to DMSO; read-out: Residual enzymatic activity
T19 construct: purchased Reaction Biology Corporation
Procedure: as §1

c-Kit = target: T20, c-Kit (Homo sapiens, UniProt P10721); conditions: 500 nM, relative to DMSO; for remaining activity at 0.5 µM: read-out: Residual enzymatic activity
T20 construct: purchased Reaction Biology Corporation
Procedure: as §1

[1] = 10-dose mode, threefold serial dilution from 10 μM

T20 sequence (P10721 26-976): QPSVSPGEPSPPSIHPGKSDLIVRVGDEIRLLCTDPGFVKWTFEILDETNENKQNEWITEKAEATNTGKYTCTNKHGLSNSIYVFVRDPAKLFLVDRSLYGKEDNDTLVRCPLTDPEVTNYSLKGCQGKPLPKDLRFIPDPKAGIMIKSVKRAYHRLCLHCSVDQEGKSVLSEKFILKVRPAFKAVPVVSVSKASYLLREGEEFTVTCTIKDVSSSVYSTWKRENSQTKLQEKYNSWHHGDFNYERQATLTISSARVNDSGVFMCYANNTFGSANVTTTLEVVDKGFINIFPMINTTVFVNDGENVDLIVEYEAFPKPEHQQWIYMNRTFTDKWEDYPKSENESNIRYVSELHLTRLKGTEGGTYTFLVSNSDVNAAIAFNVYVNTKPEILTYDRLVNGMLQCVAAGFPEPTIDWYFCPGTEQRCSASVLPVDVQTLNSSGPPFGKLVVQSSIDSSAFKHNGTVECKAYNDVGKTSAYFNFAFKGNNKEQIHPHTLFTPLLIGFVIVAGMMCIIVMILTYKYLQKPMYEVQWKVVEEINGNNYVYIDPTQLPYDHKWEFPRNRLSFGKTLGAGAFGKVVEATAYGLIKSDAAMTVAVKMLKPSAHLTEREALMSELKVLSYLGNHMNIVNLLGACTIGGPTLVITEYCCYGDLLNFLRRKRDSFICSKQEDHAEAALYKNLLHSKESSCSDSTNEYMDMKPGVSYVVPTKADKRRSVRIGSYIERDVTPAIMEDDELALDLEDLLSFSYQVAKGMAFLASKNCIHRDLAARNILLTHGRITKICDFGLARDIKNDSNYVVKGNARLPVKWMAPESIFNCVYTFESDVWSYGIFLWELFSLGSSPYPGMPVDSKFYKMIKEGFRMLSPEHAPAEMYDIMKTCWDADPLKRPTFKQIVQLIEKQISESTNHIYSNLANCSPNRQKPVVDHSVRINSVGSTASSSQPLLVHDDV
T6 sequence (P07948 1-491 isoform P07948-2): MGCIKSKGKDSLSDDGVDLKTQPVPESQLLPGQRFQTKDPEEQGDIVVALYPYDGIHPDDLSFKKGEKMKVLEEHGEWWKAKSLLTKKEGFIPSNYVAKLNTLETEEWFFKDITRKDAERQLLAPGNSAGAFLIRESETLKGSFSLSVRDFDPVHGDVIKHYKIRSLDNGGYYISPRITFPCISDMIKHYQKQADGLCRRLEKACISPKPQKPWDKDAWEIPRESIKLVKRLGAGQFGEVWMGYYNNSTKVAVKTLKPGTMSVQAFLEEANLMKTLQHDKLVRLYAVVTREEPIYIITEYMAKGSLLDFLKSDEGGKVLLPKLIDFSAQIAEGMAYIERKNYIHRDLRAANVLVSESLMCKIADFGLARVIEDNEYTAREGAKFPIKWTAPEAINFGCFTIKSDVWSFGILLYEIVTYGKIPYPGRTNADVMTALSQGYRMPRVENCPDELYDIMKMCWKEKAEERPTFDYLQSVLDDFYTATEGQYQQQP
T13 sequence (P24723 whole entry): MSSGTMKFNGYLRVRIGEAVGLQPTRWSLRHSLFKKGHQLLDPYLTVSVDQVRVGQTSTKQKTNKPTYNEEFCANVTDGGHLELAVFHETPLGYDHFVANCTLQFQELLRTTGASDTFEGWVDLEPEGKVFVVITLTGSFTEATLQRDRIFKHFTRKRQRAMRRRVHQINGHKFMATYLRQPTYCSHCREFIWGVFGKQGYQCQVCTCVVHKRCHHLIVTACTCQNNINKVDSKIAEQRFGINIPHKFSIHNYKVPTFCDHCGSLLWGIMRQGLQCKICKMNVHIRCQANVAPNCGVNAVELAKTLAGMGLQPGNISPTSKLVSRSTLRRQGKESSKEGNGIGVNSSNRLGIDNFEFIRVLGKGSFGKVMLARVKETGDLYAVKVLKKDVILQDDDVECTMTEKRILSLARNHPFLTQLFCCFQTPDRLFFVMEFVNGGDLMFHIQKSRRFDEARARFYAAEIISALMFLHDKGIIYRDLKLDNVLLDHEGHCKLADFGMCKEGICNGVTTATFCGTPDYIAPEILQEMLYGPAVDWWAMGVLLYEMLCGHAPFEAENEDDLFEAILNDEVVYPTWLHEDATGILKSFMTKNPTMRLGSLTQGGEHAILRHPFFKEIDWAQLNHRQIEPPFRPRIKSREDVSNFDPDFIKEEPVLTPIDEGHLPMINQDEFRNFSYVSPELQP
T11 sequence (P05771 whole entry): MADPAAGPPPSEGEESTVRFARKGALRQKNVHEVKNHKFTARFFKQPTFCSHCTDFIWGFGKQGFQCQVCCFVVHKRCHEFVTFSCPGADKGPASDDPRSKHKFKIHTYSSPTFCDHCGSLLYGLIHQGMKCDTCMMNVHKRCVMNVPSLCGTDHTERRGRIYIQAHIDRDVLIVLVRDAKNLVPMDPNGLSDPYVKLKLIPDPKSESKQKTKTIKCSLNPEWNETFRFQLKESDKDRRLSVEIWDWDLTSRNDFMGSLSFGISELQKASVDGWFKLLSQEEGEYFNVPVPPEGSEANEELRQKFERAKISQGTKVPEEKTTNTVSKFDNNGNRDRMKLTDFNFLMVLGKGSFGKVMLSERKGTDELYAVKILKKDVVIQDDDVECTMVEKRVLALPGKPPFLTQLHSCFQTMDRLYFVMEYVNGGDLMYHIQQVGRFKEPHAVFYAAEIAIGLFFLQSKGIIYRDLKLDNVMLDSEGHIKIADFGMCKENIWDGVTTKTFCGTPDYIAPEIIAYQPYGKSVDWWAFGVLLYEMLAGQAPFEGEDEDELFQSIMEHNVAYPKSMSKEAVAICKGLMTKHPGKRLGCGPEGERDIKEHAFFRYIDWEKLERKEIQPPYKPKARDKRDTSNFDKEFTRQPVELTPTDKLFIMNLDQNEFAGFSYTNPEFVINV
T3 sequence (O95819 whole entry): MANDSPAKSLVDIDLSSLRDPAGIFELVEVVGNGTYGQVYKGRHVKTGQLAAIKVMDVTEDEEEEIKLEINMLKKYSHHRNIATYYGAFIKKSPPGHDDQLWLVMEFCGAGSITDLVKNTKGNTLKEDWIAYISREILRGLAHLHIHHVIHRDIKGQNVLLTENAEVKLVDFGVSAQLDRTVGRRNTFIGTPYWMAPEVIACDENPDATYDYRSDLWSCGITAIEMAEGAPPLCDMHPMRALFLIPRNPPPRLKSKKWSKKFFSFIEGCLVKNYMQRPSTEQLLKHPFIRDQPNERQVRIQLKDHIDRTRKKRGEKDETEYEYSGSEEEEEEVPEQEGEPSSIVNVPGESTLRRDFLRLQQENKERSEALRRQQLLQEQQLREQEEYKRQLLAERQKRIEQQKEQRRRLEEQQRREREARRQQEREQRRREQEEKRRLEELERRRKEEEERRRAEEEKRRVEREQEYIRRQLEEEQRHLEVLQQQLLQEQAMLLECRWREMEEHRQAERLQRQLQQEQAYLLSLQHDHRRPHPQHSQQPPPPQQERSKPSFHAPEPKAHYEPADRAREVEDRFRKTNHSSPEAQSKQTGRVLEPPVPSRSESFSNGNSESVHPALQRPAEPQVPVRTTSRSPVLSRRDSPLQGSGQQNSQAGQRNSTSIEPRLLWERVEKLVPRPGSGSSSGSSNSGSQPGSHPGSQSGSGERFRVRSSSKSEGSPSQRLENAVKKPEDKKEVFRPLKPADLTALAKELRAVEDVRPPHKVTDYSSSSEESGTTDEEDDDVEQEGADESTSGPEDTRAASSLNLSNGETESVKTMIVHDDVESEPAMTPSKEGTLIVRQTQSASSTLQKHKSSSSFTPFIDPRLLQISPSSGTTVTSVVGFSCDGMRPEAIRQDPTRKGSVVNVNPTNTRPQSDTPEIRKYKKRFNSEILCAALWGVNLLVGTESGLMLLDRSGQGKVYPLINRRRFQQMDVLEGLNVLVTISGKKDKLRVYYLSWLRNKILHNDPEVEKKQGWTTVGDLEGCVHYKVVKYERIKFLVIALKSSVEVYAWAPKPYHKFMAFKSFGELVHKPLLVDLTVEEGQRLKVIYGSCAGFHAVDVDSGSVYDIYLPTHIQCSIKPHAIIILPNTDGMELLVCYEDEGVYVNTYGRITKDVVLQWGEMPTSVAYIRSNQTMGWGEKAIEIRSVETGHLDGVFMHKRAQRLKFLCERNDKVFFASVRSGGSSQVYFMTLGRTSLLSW
T5 sequence (Q9NWZ3 whole entry): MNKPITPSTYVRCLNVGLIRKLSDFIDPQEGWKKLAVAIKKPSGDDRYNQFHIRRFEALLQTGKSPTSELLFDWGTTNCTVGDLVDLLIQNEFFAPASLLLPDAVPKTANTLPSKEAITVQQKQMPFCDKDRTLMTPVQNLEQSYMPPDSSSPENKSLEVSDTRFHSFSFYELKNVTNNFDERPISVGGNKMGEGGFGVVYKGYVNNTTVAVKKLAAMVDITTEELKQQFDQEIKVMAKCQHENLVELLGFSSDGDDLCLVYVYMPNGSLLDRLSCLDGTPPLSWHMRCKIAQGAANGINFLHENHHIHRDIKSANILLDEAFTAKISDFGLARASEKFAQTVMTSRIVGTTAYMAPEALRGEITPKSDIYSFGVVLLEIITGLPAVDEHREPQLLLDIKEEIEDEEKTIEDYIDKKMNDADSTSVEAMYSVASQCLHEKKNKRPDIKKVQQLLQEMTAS
T8 sequence (Q9P289 whole entry): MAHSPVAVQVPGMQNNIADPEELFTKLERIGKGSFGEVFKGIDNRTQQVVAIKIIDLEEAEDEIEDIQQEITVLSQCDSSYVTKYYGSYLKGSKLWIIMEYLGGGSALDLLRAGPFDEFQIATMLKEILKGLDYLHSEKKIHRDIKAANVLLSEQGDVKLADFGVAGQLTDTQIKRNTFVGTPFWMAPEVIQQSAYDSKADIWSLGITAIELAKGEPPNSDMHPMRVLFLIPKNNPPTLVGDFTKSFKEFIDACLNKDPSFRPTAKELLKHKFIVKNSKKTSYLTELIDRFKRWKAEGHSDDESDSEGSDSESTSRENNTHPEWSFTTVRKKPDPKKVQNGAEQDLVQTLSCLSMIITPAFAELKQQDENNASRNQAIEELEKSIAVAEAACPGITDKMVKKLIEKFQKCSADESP

Compound	remaining activity at 0.5 µM (CDC7/DBF4) [%]	remaining activity at 0.5 µM (ERBB2/HER2) [%]	remaining activity at 0.5 µM (HGK/MAP4K4) [%]	remaining activity at 0.5 µM (HPK1/MAP4K1) [%]	remaining activity at 0.5 µM (IRAK4) [%]	remaining activity at 0.5 µM (LYN B) [%]	remaining activity at 0.5 µM (MEK2) [%]	remaining activity at 0.5 µM (MST4) [%]	remaining activity at 0.5 µM (NLK) [%]	remaining activity at 0.5 µM (PKCa) [%]	remaining activity at 0.5 µM (PKCb1) [%]	remaining activity at 0.5 µM (PKCepsilon) [%]	remaining activity at 0.5 µM (PKCeta) [%]	remaining activity at 0.5 µM (RIPK2) [%]	remaining activity at 0.5 µM (STK32B/YANK2) [%]	remaining activity at 0.5 µM (TAOK3/JIK) [%]	remaining activity at 0.5 µM (TBK1) [%]	remaining activity at 0.5 µM (TXK) [%]	remaining activity at 0.5 µM (WEE1) [%]	remaining activity at 0.5 µM (c-Kit) [%]	also measured
COc1cc(Nc2ncnc(Nc3cc4c(cn3)NC(=O)C(C)(C)O4)n2)cc(OC)c1OC [MT-SYK-03]	102	82.2	78.4	107	103	25.7	97.2	112	94.9	92.3	104	106	109	84.7	103	108	66.8	35.4	108	> 54	IC50 (LYN B; [1]): 0.0142 µM; IC50 (TXK; [1]): 0.222 µM; Residual enzymatic activity (c-Kit): 69.2%
COc1cc(Nc2ncc(F)c(Nc3ccc4c(n3)NC(=O)C(C)(C)O4)n2)cc(OC)c1OC [R406, reference compound]	82.6	80.5	75.3	98.8	41.9	14.5	83.5	94.8	107	58.3	63	95	96.6	73	92	77.2	13.9	16.3	105	37.1	–
